From patent publication US20070021351A1, “Liver/plasma concentration ratio for dosing hepatitis C virus protease inhibitor” (Schering Corporation, priority 2005, published 2007)

How the values were obtained:
[1] = Example 1: Phase 1 rising-single-dose pharmacokinetic study in healthy adult subjects; assay type: in vivo, human; conditions: for DN AUC(I): dose-normalized (to 50 mg); for Tmax: median
Procedure: A Phase 1, randomized, third-party-blind (within dose level), placebo-controlled, rising-single-dose study of compounds of Formulae I-XXVI was conducted in healthy adult subjects.
Nine subjects in each group received either compound of Formula Ia (n=6) or placebo (n=3). Those subjects randomized to active compound received one of the following doses of compound of Formula Ia: 50, 100, 200, 400, 600, or 800 mg.
On Day 1, at least 10 hours prior to compound administration, an overnight fast was maintained until 4 hours following treatment administration, after which lunch was served. During the fasting period, no food or fluid (except noncarbonated water) was permitted; furthermore, drinking water was prohibited from 2 hours predose to 2 hours postdose, with the exception of the approximately 240 mL administered with the treatments.
Blood samples (7 mL each) for the determination of compound of Formula Ia concentrations were collected immediately prior to dosing (0 hour), and at 0.25, 0.5, 0.75, 1, 1.5, 2, 3, 4, 5, 6, 8, 10, 12, 18, 24, 36, 48, 72, and 144 hours postdose. The blood samples were collected into tubes containing EDTA. The samples were separated by centrifugation at 4° C. for 15 minutes at 1500 g to obtain the plasma, and the plasma samples frozen at −20° C. until assayed.
Plasma concentrations of compound of Formula Ia were determined using a validated liquid chromatography tandem mass spectrometry (LC-MS/MS) method. The assay lower limit of quantitation (LLOQ) was 0.50 ng/mL, and the method was validated over the concentration range of 0.50 to 1000 ng/mL.
The mean and percent coefficients of variation (% CV) were calculated for the plasma concentrations of compound of Formula Ia at each time point. Concentration values less than the assay LLOQ were reported as and set to zero in the calculations and tables. The plasma concentration-time data for compound of Formula Ia were subjected to pharmacokinetic analysis by noncompartmental methods using WinNonlin software. Nominal sampling times were used for pharmacokinetic analysis.
For each subject, the following compound of Formula Ia pharmacokinetic parameters were determined: • Cmax Maximum observed plasma concentration • Tmax Time of maximum observed plasma concentration • tf Time of final quantifiable sample • AUC(tf) Area under the plasma concentration-time curve from time 0 to tf • AUC(I) Area under the plasma concentration-time curve from time 0 to infinity [AUC(I)=AUC(tf)+C(tf)estimated/k, where k and C(tf)estimated are terminal elimination rate constant and estimated concentration at final quantifiable sample, respectively] • t½ Terminal-phase half-life (t½=In2/k) • CL/F Apparent total body clearance (CL/F=Dose/AUC[I]) • Vd/F Apparent volume of distribution (Vd/F=CL/F*(t1/2/0.693))
Dose-adjusted (to 50 mg) Cmax, AUC(I), and AUC(tf) values were also calculated. Cmax, Tmax, and tf were the observed values. The terminal phase rate constant (k) was calculated as the negative of the slope of the log-linear terminal portion of the plasma concentration-time curve using linear regression (at least three time points). The number of points needed to determine the terminal phase rate constant was selected by WinNonlin software.
Summary statistics, including means, standard deviations, and coefficients of variation (CV) expressed as a percent, were computed for the single-dose plasma compound of Formula Ia concentration data at each sampling time point and for the derived pharmacokinetic parameters for each dose level using a standard program based on SAS/STAT (Release 6.12; SAS Institute Inc., North Carolina).
The log-transformed dose-adjusted (to 50 mg) Cmax and AUC values of compound of Formula Ia were statistically analyzed using an analysis of variance (ANOVA) model. The effect due to treatment (dose) was extracted. Ninety-five percent confidence intervals (CIs) for the means at each dose level, based on the nontransformed data, were provided. […]

[2] = test system: HCV; experiment: Suppression of virus in serum after about two weeks of administration; assay type: in vivo; conditions: threshold of detectability
[3] = single oral 600 mg, fasted healthy adults, mean, n=6

SMILES: CC(C)(C)NC(=O)N[C@H](C(=O)N1C[C@H]2[C@@H]([C@H]1C(=O)NC(CC1CCC1)C(=O)C(N)=O)C2(C)C)C(C)(C)C (mixture of isomers) [Formula Ia, (1R,5S)-N-[3-Amino-1-(Cyclobutylmethyl)-2,3-Dioxopropyl]-3-[2(S)-[[[(1,1-Dimethylethyl)Amino]Carbonyl]Amino]-3,3-Dimethyl-1-Oxobutyl]-6,6-Dimethyl-3-Azabicyclo[3.1.0]Hexan-2(S)-Carboxamide]
- DN AUC(I) ([1]; single oral 50 mg, mean, n=6): 181 ng·h/mL
- DN AUC(I) ([1]; single oral 100 mg, mean, n=6): 172 ng·h/mL
- DN AUC(I) ([1]; single oral 200 mg, mean, n=6): 212 ng·h/mL
- DN AUC(I) ([1]; single oral 400 mg, mean, n=6): 195 ng·h/mL
- DN AUC(I) ([1]; single oral 600 mg, mean, n=6): 180 ng·h/mL
- DN AUC(I) ([1]; single oral 800 mg, mean, n=6): 145 ng·h/mL
- AUC(I) ([1]; single oral 50 mg, fasted healthy adults, mean, n=6): 181 ng·h/mL
- Tmax ([1]; single oral 50 mg, fasted healthy adults, n=6): 1.50 h
- Cmax ([1]; single oral 400 mg, fasted healthy adults, mean, n=6): 445 ng/mL
- Tmax ([1]; single oral 400 mg, fasted healthy adults, n=6): 1.75 h
- AUC(I) [1, 3]: 2158 ng·h/mL
- t½ [1, 3]: 10.2 h
- Tmax ([1]; single oral 600 mg, fasted healthy adults, n=6): 2.25 h
- AUC(I) ([1]; single oral 800 mg, fasted healthy adults, mean, n=6): 2320 ng·h/mL
- dose dependence of Cmax and AUC ([1]; single oral doses 50-800 mg): increased in a dose-related manner up to the 600 mg dose
- virus level in serum [2]: < 100 copies/ml
